Measurements as given in article PMC5661649, “G-protein-coupled receptors mediate 14-3-3 signal transduction” (Signal Transduction and Targeted Therapy, 2016).
Like-named read-outs stand apart in the source and are kept apart here.

Legend:
α1AR/14-3-3 interaction = experiment: Kinase inhibitor response in α1AR/14-3-3ε LinkLight cells; assay type: cell-based, human; details: preincubation of α1AR/14-3-3 cells; Figure 3c
[1] = biological target: T1, β3 adrenergic receptor (ADRB3) (Homo sapiens, UniProt P13945); experiment: ADRB3/14-3-3 LinkLight assay; assay type: cell-based; details: HEK293 stably expressing ADRB3-TEV and 14-3-3-pLuc; Figure 3d
T1 construct: Full-length complementary DNAs of human GPCRs without stop codons were subcloned in frame with the tobacco etch virus (TEV) protease vector; expressed in transfected cells
T1 sequence (P13945 whole entry): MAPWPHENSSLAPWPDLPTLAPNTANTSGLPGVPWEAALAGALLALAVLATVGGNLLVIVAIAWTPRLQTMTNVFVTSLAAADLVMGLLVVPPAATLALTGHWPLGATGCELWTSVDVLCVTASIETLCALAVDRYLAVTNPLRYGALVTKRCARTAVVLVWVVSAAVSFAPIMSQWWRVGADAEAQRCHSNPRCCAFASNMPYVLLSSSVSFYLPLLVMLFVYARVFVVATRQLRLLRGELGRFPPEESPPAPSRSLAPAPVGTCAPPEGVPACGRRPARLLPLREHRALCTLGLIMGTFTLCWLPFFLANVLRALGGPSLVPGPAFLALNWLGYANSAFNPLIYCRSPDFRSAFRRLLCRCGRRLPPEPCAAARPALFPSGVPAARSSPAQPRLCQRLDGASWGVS
Method: (§1) Multiple stable clones were selected for evaluation.
(§2) Cells were cultured overnight.

[2] = biological target: T2, α1AR (β-arrestin signaling) (Homo sapiens, UniProt P35348); experiment: α1AR/β-arrestin-2 LinkLight assay; assay type: cell-based; details: α1A-TEV/β-arrestin-pLuc cells, Figure 3f; for EC50: adrenergic agonist panel, read-out: potency (rank order) in β-arrestin signaling
T2 construct: Full-length complementary DNAs of human GPCRs without stop codons were subcloned in frame with the tobacco etch virus (TEV) protease vector; expressed in transfected cells
T2 sequence (P35348 1-466): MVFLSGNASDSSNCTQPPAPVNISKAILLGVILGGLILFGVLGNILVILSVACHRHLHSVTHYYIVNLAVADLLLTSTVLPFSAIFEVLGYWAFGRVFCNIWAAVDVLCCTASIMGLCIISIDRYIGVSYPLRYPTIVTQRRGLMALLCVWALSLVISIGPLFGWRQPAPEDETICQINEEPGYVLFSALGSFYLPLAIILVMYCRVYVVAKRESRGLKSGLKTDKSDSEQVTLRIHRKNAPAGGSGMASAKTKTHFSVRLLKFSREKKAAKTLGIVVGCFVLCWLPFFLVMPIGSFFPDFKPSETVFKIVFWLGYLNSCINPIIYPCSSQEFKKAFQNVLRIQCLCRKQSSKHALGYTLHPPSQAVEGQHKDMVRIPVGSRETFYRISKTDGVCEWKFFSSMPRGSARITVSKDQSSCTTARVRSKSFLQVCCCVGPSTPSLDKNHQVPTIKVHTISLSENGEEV
Method: as §1, §2
The GPCR/β-arrestin-2 LinkLight cells were seeded in white 384-well plates.

[3] = biological target: T3, Alpha adrenergic receptor 1A (α1AR) (Homo sapiens, UniProt P35348); experiment: α1AR/14-3-3ε LinkLight assay (agonist-induced GPCR-mediated 14-3-3 signaling); assay type: cell-based
T3 construct: Full-length complementary DNAs of human GPCRs without stop codons were subcloned in frame with the tobacco etch virus (TEV) protease vector; expressed in transfected cells
T3 sequence (P35348 1-466): T2 sequence (P35348 1-466)
Method: as §1, §2

Raf-1/14-3-3 interaction = experiment: Kinase inhibition of FBS-stimulated Raf-1/14-3-3 interaction in U2OS cells; assay type: cell-based; details: 7.5% FBS stimulation, Figure 4d
Method: as §2
The LinkLight cells were cultured in a white 384-well plate overnight. The culture medium was then replaced with serum-free DMEM.

[4] = biological target: T4, muscarinic cholinergic receptor 5 (CHRM5) (Homo sapiens, UniProt P08912); experiment: CHRM5/14-3-3ε LinkLight assay, agonist mode; assay type: cell-based; details: stable CHRM5/14-3-3 LinkLight cells; Figure 2e
T4 construct: Full-length complementary DNAs of human GPCRs without stop codons were subcloned in frame with the tobacco etch virus (TEV) protease vector; expressed in transfected cells
T4 sequence (P08912 1-532): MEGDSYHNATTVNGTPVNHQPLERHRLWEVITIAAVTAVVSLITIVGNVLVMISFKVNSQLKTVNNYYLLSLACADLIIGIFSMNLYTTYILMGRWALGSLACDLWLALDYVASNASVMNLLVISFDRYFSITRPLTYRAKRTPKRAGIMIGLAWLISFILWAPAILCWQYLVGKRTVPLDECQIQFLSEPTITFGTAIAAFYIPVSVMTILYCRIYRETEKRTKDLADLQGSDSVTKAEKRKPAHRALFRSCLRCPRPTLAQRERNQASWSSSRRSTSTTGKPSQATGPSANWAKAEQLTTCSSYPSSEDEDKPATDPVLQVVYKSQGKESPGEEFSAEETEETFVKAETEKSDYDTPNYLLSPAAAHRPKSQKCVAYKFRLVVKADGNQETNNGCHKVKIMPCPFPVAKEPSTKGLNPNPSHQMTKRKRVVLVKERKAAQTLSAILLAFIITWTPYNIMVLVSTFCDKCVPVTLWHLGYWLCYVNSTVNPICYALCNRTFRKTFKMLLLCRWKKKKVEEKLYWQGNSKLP
From the text: (§3) Full-length complementary DNAs of human GPCRs without stop codons were subcloned in frame with the tobacco etch virus (TEV) protease vector as previously described.[20],[21] The β-arrestin-2-permuted luciferase (β-arr-2-pLuc) expression plasmid was also previously described.[20],[21] 14-3-3ɛ and 14-3-3ζ full-length complementary DNAs without stop codons were used to replace β-arrestin-2 in the β-arr-2-pLuc for construction of the 14-3-3ɛ-pLuc and 14-3-3ζ-pLuc expression plasmids. […] Multiple stable clones were selected for evaluation.
(§4) The LinkLight cells stably expressing both GPCR-TEV and 14-3-3ε-pLuc were seeded into a 384-well white plate (Becton Dickinson, Franklin Lakes, NJ, USA) at 20 000 cells per well with 30 μl of regular medium. Cells were cultured overnight. The following day, the culture medium was replaced with 15 μl of serum-free DMEM, followed by the addition of 5 μl of compounds/drugs. Agonists were added as serial dilutions in serum-free DMEM from 10 mM dimethylsulfoxide stocks. For antagonist inhibition assays, the medium was replaced with 10 μl of serum-free DMEM. […] The luminescence signals were determined using a luminescence plate reader (EnSpire or TopCount). Alternatively, after compound incubation, the culture medium was replaced with 10 μl of luciferase detection reagent, and luminescence signals were recorded. […]

[5] = test system: Raf-1/14-3-3ε interaction; experiment: GPCR agonist-induced Raf-1/14-3-3ε interaction LinkLight assay in U2OS cells; assay type: cell-based; details: U2OS stably co-expressing Raf-1-TEV and 14-3-3ε-pLuc, endogenous GPCRs; Figure 4a
From the text: as §3
The LinkLight cells stably expressing both GPCR-TEV and 14-3-3ε-pLuc were seeded into a 384-well white plate (Becton Dickinson, Franklin Lakes, NJ, USA) at 20 000 cells per well with 30 μl of regular medium. Cells were cultured overnight. The following day, the culture medium was replaced with 15 μl of serum-free DMEM, followed by the addition of 5 μl of compounds/drugs. Agonists were added as serial dilutions in serum-free DMEM from 10 mM dimethylsulfoxide stocks. For antagonist inhibition assays, the medium was replaced with 10 μl of serum-free DMEM. […] An equal volume of Bright-Glo (Promega, Madison, WI, USA), One-Glo (Promega), BriteLite (PerkinElmer, Billerica, MA, USA) or NeoLite (PerkinElmer) luciferase detection reagent was added for a 5-min incubation. The luminescence signals were determined using a luminescence plate reader (EnSpire or TopCount). Alternatively, after compound incubation, the culture medium was replaced with 10 μl of luciferase detection reagent, and luminescence signals were recorded.
The Raf-1/14-3-3ε LinkLight cells were seeded in white 384-well plates.

[6] = biological target: T4, muscarinic cholinergic receptor 5 (CHRM5); experiment: CHRM5/14-3-3ε LinkLight assay, antagonist mode; assay type: cell-based; details: preincubation with antagonist, then 3 μM carbachol; Figure 2f
From the text: as §3, §4

[7] = α1A-TEV/14-3-3ε-pLuc cells, adrenergic agonist panel, Figure 3e, read-out: potency (rank order) in the 14-3-3 signaling assay

Structure (SMILES): Cn1c(CNc2cccc(C(=O)NCc3ccccc3C(F)(F)F)c2)nnc1-c1ccncc1 [CMPD101]
- inhibition of cirazoline-stimulated α1AR/14-3-3 signals (α1AR/14-3-3 interaction): did not inhibit

Structure (SMILES): c1ccc(C2CC2)c(OCC2=NCCN2)c1 [cirazoline]
- ADRB3/14-3-3 interaction signals [1]: very weak signals even at 10 μM
- EC50 [2]: 0.0184 µM
- EC50 ([3]; HEK293 stably co-expressing α1A-TEV/14-3-3ε-pLuc, Figure 2a, read-out: EC50, α1AR-mediated 14-3-3 signaling): 0.0095 µM
- EC50 [3, 7]: 0.00172 µM

Structure (SMILES): CC(C)NCC(O)c1ccc(O)c(O)c1 (stereo not shown) [isoproterenol]
- ADRB3/14-3-3 interaction signals [1]: promoted ADRB3/14-3-3 interaction signals in a concentration-dependent manner
- agonist behaviour in β-arrestin signaling versus 14-3-3 signaling [2]: much weaker agonists of β-arrestin signaling than of 14-3-3 signaling

Structure (SMILES): O=C1Nc2ccc(I)cc2/C1=C/c1cc(Br)c(O)c(Br)c1 [GW5074]
- inhibition of FBS-stimulated Raf-1/14-3-3 interaction signals (Raf-1/14-3-3 interaction): very weak inhibition activity

Structure (SMILES): CCCS(=O)(=O)Nc1ccc(F)c(C(=O)c2c[nH]c3ncc(-c4ccc(Cl)cc4)cc23)c1F [vemurafenib]
- inhibition of FBS-stimulated Raf-1/14-3-3 interaction signals (Raf-1/14-3-3 interaction): partial inhibition

Structure (SMILES): C[N+](C)(C)CCOC(N)=O [carbachol]
- agonist behaviour for 14-3-3 signaling (full/partial) [4]: full agonists

Structure (SMILES): NCCc1ccc(O)c(O)c1 [dopamine]
- Raf-1/14-3-3 interaction signals on stimulation with GPCR agonist [5]: concentration-dependent Raf-1/14-3-3 interaction signals

Structure (SMILES): O=C1CCCN1CC#CCN1CCCC1 [Oxotremorine, oxotremorine]
- agonist behaviour for 14-3-3 signaling (full/partial) [4]: full agonists

Structure (SMILES): CCNC(=O)[C@H]1O[C@@H](n2cnc3c(N)ncnc32)[C@H](O)[C@@H]1O [NECA, 5'-N-ethylcarboxamidoadenosine]
- Raf-1/14-3-3 interaction signals on stimulation with GPCR agonist [5]: concentration-dependent Raf-1/14-3-3 interaction signals

Structure (SMILES): COc1ccc(OC)c(C(O)C(C)N)c1 (stereo not shown) [methoxamine]
- EC50 [2]: 0.318 µM
- EC50 [3, 7]: 0.0111 µM

Structure (SMILES): Brc1c(NC2=NCCN2)ccc2nccnc12 [UK14304]
- EC50 [2]: 0.78 µM
- EC50 [3, 7]: 0.0552 µM

Structure (SMILES): O=S(=O)(NCCNC/C=C/c1ccc(Br)cc1)c1cccc2cnccc12 [H-89]
- inhibition of cirazoline-stimulated α1AR/14-3-3 signals (α1AR/14-3-3 interaction): did not inhibit

Structure (SMILES): CN1[C@@H]2CC[C@H]1C[C@@H](OC(=O)C(CO)c1ccccc1)C2 (stereo partly shown) [atropine]
- inhibition of agonist-induced CHRM5-mediated 14-3-3 signals [6]: antagonist concentration-dependent inhibition signals

Structure (SMILES): CN1[C@@H]2C[C@@H](OC(=O)[C@H](CO)c3ccccc3)C[C@H]1[C@@H]1O[C@@H]12 [scopolamine]
- inhibition of agonist-induced CHRM5-mediated 14-3-3 signals [6]: antagonist concentration-dependent inhibition signals

Structure (SMILES): N=C(N)NC(=O)Cc1c(Cl)cccc1Cl [guanfacine]
- ADRB3/14-3-3 interaction signals [1]: very weak signals even at 10 μM
- EC50 [2]: 1.61 µM
- EC50 [3, 7]: 0.0124 µM

Structure (SMILES): C[C@H](Cc1ccc(OCC(=O)O)cc1)NC[C@H](O)c1cccc(Cl)c1 [BRL37344]
- agonist behaviour in β-arrestin signaling versus 14-3-3 signaling [2]: much weaker agonists of β-arrestin signaling than of 14-3-3 signaling

Structure (SMILES): CNC[C@H](O)c1ccc(O)c(O)c1 [adrenaline]
- Raf-1/14-3-3 interaction signals on stimulation with GPCR agonist [5]: concentration-dependent Raf-1/14-3-3 interaction signals
